The values that follow come from ChEMBL document CHEMBL1828536, “The impact of fatty acids on the antibacterial properties of N-thiolated β-lactams” (2011).

Assay type in all cases: functional
The test system of test [1] is Staphylococcus aureus. Nature of the test: Antimicrobial activity against methicillin-resistant Staphylococcus aureus using tryptone soy broth in presence of oleic acid.
Test [2] concerns Staphylococcus aureus. Nature of the test: Antimicrobial activity against methicillin-resistant Staphylococcus aureus using tryptone soy broth in presence of tween-80.
For test [3], the system named is Staphylococcus aureus. Nature of the test: Antimicrobial activity against methicillin-resistant Staphylococcus aureus using tryptone soy broth.
The test system of test [4] is Staphylococcus aureus. Nature of the test: Antimicrobial activity against methicillin-resistant Staphylococcus aureus using tryptone soy broth in presence of bovine serum albumin.

In brackets after ≈: the same amount, converted by molar mass. Bounds are passed on as bounds.

What is called MIC is the lowest concentration that inhibits growth of the organism. For the molecule `CCC(C)SN1C(=O)[C@H](OC)[C@@H]1c1ccccc1Cl` (some centres not stated), the MIC in the test with Staphylococcus aureus [1] was 2000 µg/mL; in the test on Staphylococcus aureus [2], 3000 µg/mL; against Staphylococcus aureus [3] it was 1000 µg/mL (≈ 3340 µM).

As for `Oc1cc(Cl)ccc1Oc1ccc(Cl)cc1Cl` [TRICLOSAN], the MIC is 2000 µg/mL with Staphylococcus aureus [1], 20 µg/mL in the test with Staphylococcus aureus [4], > 10000 µg/mL with Staphylococcus aureus [2] and 20 µg/mL (≈ 69.1 µM) against Staphylococcus aureus [3].
